The structures appear in SMILES notation. Some results are limits rather than exact numbers.

These results are taken from patent US11479553B2, “5-5 fused rings as C5a inhibitors” (CHEMOCENTRYX, INC., priority 2017, dated 2022).

For this assay, the target named is C5aR (Homo sapiens (Human), UniProt P21730). In words: Chemotaxis assay (inhibition of C5aR mediated migration toward C5a). It counts as cell-based. The note with it: inhibition in the chemotaxis assay (Example 14 B.3); U937 or neutrophil cells, C5a as chemoattractant. The method, then: U937 cells are a monocytic cell line which express C5aR, and are available from ATCC (VA). These cells were cultured as a suspension in RPMI-1640 medium supplemented with 2 mM L-glutamine, 1.5 g/L sodium bicarbonate, 4.5 g/L glucose, 10 mM HEPES, 1 mM sodium pyruvate, and 10% FBS. Cells were grown under 5% CO2/95% air, 100% humidity at 37° C. and subcultured twice weekly at 1:6 (cells were cultured at a density range of 1×10^5 to 2×10^6 cells/mL) and harvested at 1×10^6 cells/mL. Prior to assay, cells are treated overnight with 0.5 mM of cyclic AMP (Sigma, OH) and washed once prior to use. cAMP treated U937 cells can be used in C5aR ligand binding and functional assays.
Sequence of C5aR (P21730 whole entry): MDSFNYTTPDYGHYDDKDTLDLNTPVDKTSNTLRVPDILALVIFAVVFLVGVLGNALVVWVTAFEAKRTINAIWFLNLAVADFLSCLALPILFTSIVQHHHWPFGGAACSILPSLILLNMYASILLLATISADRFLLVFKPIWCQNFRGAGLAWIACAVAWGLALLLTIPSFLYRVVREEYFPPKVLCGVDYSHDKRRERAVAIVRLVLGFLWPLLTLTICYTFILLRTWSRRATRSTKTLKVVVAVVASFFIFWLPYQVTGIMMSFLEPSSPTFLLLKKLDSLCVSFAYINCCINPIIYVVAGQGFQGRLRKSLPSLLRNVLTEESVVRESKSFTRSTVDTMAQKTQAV
Optionally, human or murine neutrophils can be used to assay for compound activity. Neutrophils may be isolated from fresh human blood using density separation and centrifigation. Briefly, whole blood is incubated with equal parts 3% dextran and allowed to separate for 45 minutes. After separation, the top layer is layered on top of 15 mls of Ficoll (15 mls of Ficoll for every 30 mls of blood suspension) and centrifuged for 30 minutes at 400×g with no brake. The pellet at the bottom of the tube is then isolated and resuspended into PharmLyse RBC Lysis Buffer (BD Biosciences, San Jose, Calif.) after which the sample is again centrifuged for 10 minutes at 400×g with brake. The remaining cell pellet is resuspended as appropriate and consists of isolated neutrophils.
Optionally, compounds may be further assayed for their ability to inhibit chemotaxis in cells. Chemotaxis assays are performed using 5 μm pore polycarbonate, polyvinylpyrrolidone-coated filters in 96-well chemotaxis chambers (Neuroprobe; Gaithersburg, Md.) using chemotaxis buffer (Hank's balanced salt solution (HBSS) and 1% FBS). C5aR ligands (i.e., C5a, R&D Systems; Minneapolis, Minn.) are use to evaluate compound mediated inhibition of C5aR mediated migration. Other chemokines (i.e., SDF-1α; R&D Systems; Minneapolis, Minn.) are used as specificity controls. The lower chamber is loaded with 29 μl of chemokine (i.e., 0.03 nM C5a) and varying amounts of compound; the top chamber contains 100,000 U937 or neutrophil cells in 20 μl. The chambers are incubated 1.5 hours at 37° C., and the number of cells in the lower chamber quantified either by direct cell counts in five high powered fields per well or by the CyQuant assay (Molecular Probes), a fluorescent dye method that measures nucleic acid content and microscopic observation.

In turn, `CCc1cccc(CC)c1-n1nc2c(c1-c1ccc(F)c3[nH]ccc13)CN(CC(C)(C)C)C2(C)C` [Compound 1.009] displayed an IC50 of 50 to 500 nM.

`CCc1cccc(CC)c1-n1nc2c(c1-c1ccc(F)c3[nH]ccc13)CN(C(=O)C(C)(C)C(F)(F)F)C2(C)C` [Compound 1.033] gave a half-inhibitory concentration (IC50) of 5 to 50 nM.

`CCc1cccc(CC)c1-n1nc2c(c1-c1ccc(F)c3[nH]ccc13)CN(CC(C)(C)C(F)(F)F)C2(C)C` [Compound 1.032] came in with an IC50 of less than 5 nM.

Turning to `Cc1cccc(C)c1-n1nc2c(c1-c1ccc3[nH]ccc3c1)CN(CC(C)(C)C)C2` [Compound 1.051], the concentration for half-maximal inhibition (IC50) was no less than 500 nM.
